Here are results for 4 molecules from patent publication US10258036B2, “Extract of Euodia suaveolens Scheff, repellent compositions and use thereof” (CHARABOT, priority 2009, dated 2019).

For one data set, the system named is mosquitoes. Conditions: cited from earlier work.
In data set [1] the test system is Aedes aegypti. In words: Repellent efficacy test on hairless mouse coated with test product, exposed to female mosquitoes. In kind it is in vivo. Conditions: concentration of 3% or even less of synthetic evodone. The procedure:
In this respect, the invention is illustrated by the following efficacy tests, carried out in the laboratory, where the formulas are not degraded through the effects of abrasion, exudation, sunlight, temperature or even swimming in the sea. […] The tests are carried out on female Aedes aegypti mosquitoes aged 6 to 10 days having undergone a prior 24-hour period of fasting (no blood meal) in order to increase their aggressiveness. […] 30 minutes after product application, the mouse is introduced into a cage containing approximately 200 female mosquitoes (prior removal of the males using a food gradient). The test lasts 5 minutes and during this period the number of mosquitoes having landed on the mouse (“landing” effect: number of mosquitoes that land on the treated area and leave without biting) and the number of effective bites, are recorded. The test is stopped after 5 effective bites (“stop” in the Tables below). […] Based on the outcome of the first repetition, repetitions are performed at time intervals of 30 minutes in order to provide a more accurate limit for the duration of protection. During and between the runs, the mice are maintained in a “tropical” like atmosphere under controlled conditions at 27+/−1° C. and 70+/−5% relative humidity. The cages are changed upon each unit test and placed 3 meters apart. […]

For data set [2] the following is noted: in vivo; cited from earlier work.
Data set [3] has as its system Aedes aegypti. The conditions noted are these: DEET at a dose of 23.8 percent, laboratory; cited from earlier work.

For p menthane 3.8 diol [citriodiol], the “maximum persistence of protection” value in the data set on mosquitoes is no more than 6 h.

Turning to `CCC(C)OC(=O)N1CCCCC1CCO` (centres unmarked) [icaridin, 1-methylpropylester], the “concentration with efficacy comparable to that of 30% DEET” value in the data set on mosquitoes is 19.2%.

Regarding `Cc1coc2c1C(=O)C[C@@H](C)C2` [evodone, (6S)3-6 dimethyl 6,7 dihydro 5H benzofuran-4-one], the “repellent efficacy compared with DEET” value with Aedes aegypti [1] is given as “as effective as a concentration of 30% of DEET”. Take `CCN(CC)C(=O)c1cccc(C)c1` [DEET, N,N-diethyl-3-methylbenzamide]: the “share of a dose absorbed through the skin” value in data set [2] was 30%. In addition, the protection period result in the data set on Aedes aegypti [3] is reported as “more than 5 hours”.
